The values below come from patent US20260078120A1, “SUBSTITUTED PYRIDOPYRIMIDINONES” (MIRATI THERAPEUTICS, INC., priority 2022, published 2026).

pIC50: −log10 of the molar value. Read-outs that look alike come from different tables or passages of the source.

By IC50 is commonly meant the point on the concentration scale where inhibition reaches its midpoint. Broadly, the pIC50 is the negative decadic logarithm of the IC50, by convention in mol/L.

For test [1], the system named is T47D (PI3Kα H1047R mutant) cells. The test is described as follows: CellTiter-Glo 2.0 luminescent cell viability assay, 72 hours, T47D cells. The format is cell-based. The settings on record: for pIC50: T47D (PI3Kα H1047R mutant) cells, CellTiter-Glo, approximately 72 hours, read-out: T47D (H1047R mutant) Viability IC50. The method, then:
This Example illustrates that exemplary compounds of the present invention decrease the viability of cells.
(§1) The ability of a compound of Formula (I) to decrease the viability of cells was measured using CellTiter-Glo 2.0 (CTG) Luminescent Cell Viability Assay (#G9241) obtained from Promega (Madison, WI).
To prepare assay plates for viability assays, cells were trypsinized, resuspended in fresh media, and viable cells were counted utilizing trypan blue exclusion. T47D, SKBR3, or MKN1 cells were seeded at 1000 cells in 30 μl per well in a solid white flat bottom 384 cell culture plate (Perkin Elmer #6007680) and incubated at 37° C. overnight.
(§2) Assay day 1, cells were dosed using an Echo Liquid Handler (Beckman Coulter) with compounds at a 10 um starting concentration and serially diluted (1:4) for a total of 10 concentrations. Cells were incubated for approximately 72 hours with the compounds (solubilized in DMSO) at 37° C. After 72 hours of treatment, cell plates were equilibrated to room temperature before adding 15 μl of CTG to each well, plates were then covered in aluminum foil to protect from light, incubated at room temperature for 30 minutes on a microtiter plate shaker, and luminescence readings were collected using a CLARIOstar microplate reader (BMG Labtech, Germany). Percent of vehicle control values were plotted as log (inhibitor) vs. response-Variable slope (four parameters) for curve fitting and IC50 values were determined using XLfit.

Test [2] deals with SKBR3 (PI3Kα wild type) cells. Put plainly: CellTiter-Glo 2.0 luminescent cell viability assay, 72 hours, SKBR3 cells. Format: cell-based. The settings on record: Homo sapiens, SK-BR-3, 72 h; for pIC50: SKBR3 (PI3Kα wild type) cells, CellTiter-Glo, approximately 72 hours, read-out: SKBR3 (WT) Viability IC50. The method, then: as §1
To prepare assay plates for viability assays, cells were trypsinized, resuspended in fresh media, and viable cells were counted utilizing trypan blue exclusion.
as §2
A general note: In ATP-based viability assays light output follows the ATP content of the culture.

In the case of `Cc1cc([C@@H](C)Nc2ccccc2C(=O)O)c2nc(N3C4CCC3CC(c3ccnn3C)C4)c(C)c(=O)n2c1` (stereo partly drawn) [Example 10-2, 2-(((1R)-1-(3,7-dimethyl-2-(3-(1-methyl-1H-pyrazol-5-yl)-8-azabicyclo[3.2.1]octan-8-yl)-4-oxo-4H-pyrido[1,2-a]pyrimidin-9-yl)ethyl)amino)benzoic acid], the IC50 in test [1] (Homo sapiens, T47D, 72 h, read-out: T47D (H1047R mutant) Viability IC50 (nM)) is 4.72 nM; in test [2] (read-out: SKBR3 (WT) Viability IC50 (nM)), > 10000 nM.

As to `Cc1cc([C@@H](C)Nc2ccccc2C(=O)O)c2nc(N3CCC(N4CCCCC4=O)CC3)c(C)c(=O)n2c1` [Example 10-3, (R)-2-((1-(3,7-dimethyl-4-oxo-2-(2-oxo-[1,4′-bipiperidin]-1′-yl)-4H-pyrido[1,2-a]pyrimidin-9-yl)ethyl)amino)benzoic acid], the pIC50 in test [1] (Homo sapiens, T47D, 72 h) was 8.09; in test [2], < 5.00.

With `CCOCC1CCN(c2nc3c([C@@H](C)Nc4ccccc4C(=O)O)cc(C)cn3c(=O)c2C)CC1` [Example 10-4, (R)-2-((1-(2-(4-(ethoxymethyl)piperidin-1-yl)-3,7-dimethyl-4-oxo-4H-pyrido[1,2-a]pyrimidin-9-yl)ethyl)amino)benzoic acid], the pIC50 in test [1] (Homo sapiens, T47D, 72 h) was 7.91; in test [2], < 5.00.

As to `Cc1cc([C@@H](C)Nc2ccccc2C(=O)O)c2nc(N3CCN(C(=O)CC4CC4)CC3)c(C)c(=O)n2c1` [Example 10-6, (R)-2-((1-(2-(4-(2-cyclopropylacetyl)piperazin-1-yl)-3,7-dimethyl-4-oxo-4H-pyrido[1,2-a]pyrimidin-9-yl)ethyl)amino)benzoic acid], the pIC50 in test [1] (Homo sapiens, T47D, 72 h) was 7.82; in test [2], < 5.00.

Turning to `Cc1cc([C@@H](C)Nc2ccccc2C(=O)O)c2nc(N3CCc4ccccc4C3)c(C)c(=O)n2c1` [Example 10-7, (R)-2-((1-(2-(3,4-dihydroisoquinolin-2(1H)-yl)-3,7-dimethyl-4-oxo-4H-pyrido[1,2-a]pyrimidin-9-yl)ethyl)amino)benzoic acid], the pIC50 in test [1] (Homo sapiens, T47D, 72 h) is 7.77; in test [2], < 5.00.

Turning to `Cc1cc([C@@H](C)Nc2ccccc2C(=O)O)c2nc(N3CCCC4(CCC4O)C3)c(C)c(=O)n2c1` (stereo partly drawn) [Example 10-8, 2-(((1R)-1-(2-(1-hydroxy-6-azaspiro[3.5]nonan-6-yl)-3,7-dimethyl-4-oxo-4H-pyrido[1,2-a]pyrimidin-9-yl)ethyl)amino)benzoic acid], the pIC50 in test [1] (Homo sapiens, T47D, 72 h) was 7.62; in test [2], < 5.00.

Regarding `Cc1cc([C@@H](C)Nc2ccccc2C(=O)O)c2nc(N3CCC(c4ccncc4)C3)c(C)c(=O)n2c1` (stereo partly drawn) [Example 10-9, 2-(((1R)-1-(3,7-dimethyl-4-oxo-2-(3-(pyridin-4-yl)pyrrolidin-1-yl)-4H-pyrido[1,2-a]pyrimidin-9-yl)ethyl)amino)benzoic acid], the pIC50 in test [1] (Homo sapiens, T47D, 72 h) was 7.61; in test [2], < 5.00.

In the case of `Cc1cnn(C2CCN(c3nc4c([C@@H](C)Nc5ccccc5C(=O)O)cc(C)cn4c(=O)c3C)CC2)c1` [Example 10-16, (R)-2-((1-(3,7-dimethyl-2-(4-(4-methyl-1H-pyrazol-1-yl)piperidin-1-yl)-4-oxo-4H-pyrido[1,2-a]pyrimidin-9-yl)ethyl)amino)benzoic acid], the pIC50 was 7.43 in test [1] (Homo sapiens, T47D, 72 h) and < 5.00 in test [2].

Regarding `Cc1cc([C@@H](C)Nc2ccc(C)nc2C(=O)O)c2nc(N3CCC(F)(F)CC3)c(C#N)c(=O)n2c1` [Example 10-17, (R)-3-((1-(3-cyano-2-(4,4-difluoropiperidin-1-yl)-7-methyl-4-oxo-4H-pyrido[1,2-a]pyrimidin-9-yl)ethyl)amino)-6-methylpicolinic acid], the pIC50 in test [1] (Homo sapiens, T47D, 72 h) was 7.42; in test [2], < 5.00.

Regarding `C[C@@H](Nc1ccccc1C(=O)O)c1cc(Cl)cn2c(=O)c(C#N)c(N3CCC(F)(F)CC3)nc12` [Example 10-26, (R)-2-((1-(7-chloro-3-cyano-2-(4,4-difluoropiperidin-1-yl)-4-oxo-4H-pyrido[1,2-a]pyrimidin-9-yl)ethyl)amino)benzoic acid], the pIC50 was 7.30 in test [1] (Homo sapiens, T47D, 72 h) and < 5.00 in test [2].

Take `CO[C@@H]1CCN(c2nc3c([C@@H](C)Nc4ccccc4C(=O)O)cc(C)cn3c(=O)c2C)CC1(F)F` [Example 10-28, 2-(((R)-1-(2-((R)-3,3-difluoro-4-methoxypiperidin-1-yl)-3,7-dimethyl-4-oxo-4H-pyrido[1,2-a]pyrimidin-9-yl)ethyl)amino)benzoic acid]: the pIC50 is 7.28 in test [1] (Homo sapiens, T47D, 72 h) and < 5.00 in test [2].

With `CCc1cc([C@@H](C)Nc2ccccc2C(=O)O)c2nc(N3CCC(F)(F)CC3)c(C#N)c(=O)n2c1` [Example 10-46, (R)-2-((1-(3-cyano-2-(4,4-difluoropiperidin-1-yl)-7-ethyl-4-oxo-4H-pyrido[1,2-a]pyrimidin-9-yl)ethyl)amino)benzoic acid], the pIC50 in test [1] (Homo sapiens, T47D, 72 h) was 7.19; in test [2] it was < 5.00.

As for `C[C@@H](Nc1ccccc1C(=O)O)c1cc(C2CC2)cn2c(=O)c(C#N)c(N3CCC(F)(F)CC3)nc12` [Example 10-83, (R)-2-((1-(3-cyano-7-cyclopropyl-2-(4,4-difluoropiperidin-1-yl)-4-oxo-4H-pyrido[1,2-a]pyrimidin-9-yl)ethyl)amino)benzoic acid], the pIC50 in test [1] (Homo sapiens, T47D, 72 h) was 7.10; in test [2], < 5.00.

Regarding `Cc1cc([C@@H](C)Nc2ccccc2C(=O)O)c2nc(N3CCC(n4ccc(C(F)(F)F)n4)CC3)c(C)c(=O)n2c1` [Example 10-104, (R)-2-((1-(3,7-dimethyl-4-oxo-2-(4-(3-(trifluoromethyl)-1H-pyrazol-1-yl)piperidin-1-yl)-4H-pyrido[1,2-a]pyrimidin-9-yl)ethyl)amino)benzoic acid], the pIC50 was 7.06 in test [1] (Homo sapiens, T47D, 72 h) and < 5.00 in test [2].

Regarding `Cc1cc([C@@H](C)Nc2ccc(F)nc2C(=O)O)c2nc(N3CCC(F)(F)CC3)c(C)c(=O)n2c1` [Example 10-105, (R)-3-((1-(2-(4,4-difluoropiperidin-1-yl)-3,7-dimethyl-4-oxo-4H-pyrido[1,2-a]pyrimidin-9-yl)ethyl)amino)-6-fluoropicolinic acid], the results for the pIC50 in test [1] and in test [2] were 7.05 and < 5.00, respectively.

In the case of `Cc1cc([C@@H](C)Nc2cccnc2C(=O)O)c2nc(N3CCC(F)(F)CC3)c(C#N)c(=O)n2c1` [Example 10-121, (R)-3-((1-(3-cyano-2-(4,4-difluoropiperidin-1-yl)-7-methyl-4-oxo-4H-pyrido[1,2-a]pyrimidin-9-yl)ethyl)amino)picolinic acid], the pIC50 in test [1] (Homo sapiens, T47D, 72 h) is 6.99; in test [2], < 5.00.

As for `Cc1cc([C@@H](C)Nc2ccccc2C(=O)O)c2nc(N3Cc4ccc(C(F)F)cc4C3)c(C)c(=O)n2c1` [Example 10-128, (R)-2-((1-(2-(5-(difluoromethyl)isoindolin-2-yl)-3,7-dimethyl-4-oxo-4H-pyrido[1,2-a]pyrimidin-9-yl)ethyl)amino)benzoic acid], the pIC50 was 7.36 in test [1] (Homo sapiens, T47D, 72 h) and < 5.00 in test [2].

With `CNS(=O)(=O)c1ccc(N2CCN(c3nc4c([C@@H](C)Nc5ccccc5C(=O)O)cc(C)cn4c(=O)c3C)CC2)cc1` [Example 10-129, (R)-2-((1-(3,7-dimethyl-2-(4-(4-(N-methylsulfamoyl)phenyl)piperazin-1-yl)-4-oxo-4H-pyrido[1,2-a]pyrimidin-9-yl)ethyl)amino)benzoic acid], the pIC50 was 7.33 in test [1] (Homo sapiens, T47D, 72 h) and < 5.00 in test [2].

Consider `Cc1cc([C@@H](C)Nc2ccccc2C(=O)O)c2nc(N3CCC4(CCOC4)CC3)c(C)c(=O)n2c1` [Example 10-130, (R)-2-((1-(3,7-dimethyl-4-oxo-2-(2-oxa-8-azaspiro[4.5]decan-8-yl)-4H-pyrido[1,2-a]pyrimidin-9-yl)ethyl)amino)benzoic acid], for which the results for the pIC50 in test [1] and in test [2] were 7.33 and < 5.00, respectively.

For `Cc1cc([C@@H](C)Nc2ccccc2C(=O)O)c2nc(N3CCN(Cc4cccnc4)CC3C)c(C)c(=O)n2c1` (stereo partly drawn) [Example 10-132, 2-(((1R)-1-(3,7-dimethyl-2-(2-methyl-4-(pyridin-3-ylmethyl)piperazin-1-yl)-4-oxo-4H-pyrido[1,2-a]pyrimidin-9-yl)ethyl)amino)benzoic acid], the pIC50 was 7.29 in test [1] (Homo sapiens, T47D, 72 h) and < 5.00 in test [2].

For the molecule `Cc1cc(C(C)Nc2cccc(F)c2C(=O)O)c2nc(N3Cc4ccccc4C3)c(C)c(=O)n2c1` (stereo not drawn) [Example 11-368, 2-fluoro-6-((1-(2-(isoindolin-2-yl)-3,7-dimethyl-4-oxo-4H-pyrido[1,2-a]pyrimidin-9-yl)ethyl)amino)benzoic acid], the pIC50 in test [1] (Homo sapiens, T47D, 72 h) is 6.07.

Consider `Cc1cc(C(C)Nc2ccccc2C(=O)O)c2nc(N3CCN(C)C(=O)C3)cc(=O)n2c1` (stereo not drawn) [Example 11-384, 2-((1-(7-methyl-2-(4-methyl-3-oxopiperazin-1-yl)-4-oxo-4H-pyrido[1,2-a]pyrimidin-9-yl)ethyl)amino)benzoic acid], for which, in test [1] (Homo sapiens, T47D, 72 h), the pIC50 was < 5.00.
